The values that follow come from patent US20240376154A1, “BIS-INTERCALATING PEPTIDES, CONJUGATES AND METHODS OF USE” (ZYMEWORKS BC INC., priority 2023, published 2024).

The nature of data set [1]: Lipophilicity by experimental HPLC retention time. Type of data set: physicochemical. The following applies: HPLC retention time as measure of lipophilicity; C18, 10 to 90% CH3CN/H2O with 0.1% FA over 25 min. Put shortly: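 Reversed-phase HPLC with diode array detection on a Kinetex EVO C18 150×4.6, 2.6 μm column. Gradient 10 to 90% CH3CN/H2O with 0.1% FA over 25 min; retention time serves as the lipophilicity measure.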

The nature of data set [2]: Stability in female mouse plasma. Type of data set: in vitro ADME. The following applies: 37° C., 24 h; for half-life at 1 μM: female, mouse, plasma; for plasma stability (in words): 1 μM. As for the experimental part: The stability of exemplary compounds of general Formula I in mouse plasma was evaluated as follows.
Compounds were incubated at 1 μM in duplicate in female mouse plasma, 250 μL final volume, at 37° C. for 24 h. Aliquots were sampled at 0, 15, 30, 60, 120, 240, 480 and 1440 min. Proteins were precipitated by addition of 5 volumes of cold methanol. After centrifugation 10000×g for 10 min, the residual concentration of compound in the supernatant was measured using an appropriate LC-MS/MS method. The measured concentrations were expressed as a function of time through a one-phase decay exponential regression calculated using GraphPad Prism software (GraphPad Software, Inc.) to generate the plasma half-life for each compound.

The test system of a further data set is herring sperm DNA. The data set can be described thus: DNA melting temperature by differential scanning calorimetry (DSC). Type of data set: binding. The following applies: for DNA melt (° C.): DSC, herring sperm DNA, DNA melting temperature = 68° C.; for DNA binding (in words): only DSC data in Table 7.1. As for the experimental part:
Representative compounds prepared as described in Example 2 were assessed in two complementary DNA-binding assays. Increased melting temperature of herring sperm DNA was measured using differential scanning calorimetry (DSC) and binding kinetics were determined by surface plasmon resonance (SPR) using a short DNA hairpin sequence.
DSC experiments were conducted as described in Leng, 2003, Nucleic Acids Res., 31 (21): […], using a Nano DSC (TA Instruments, New Castle, DE) and analyzed using the NanoAnalyze™ software package. Herring sperm DNA solution (Invitrogen 15634017, 10 mg/mL) was diluted to 1 mg/mL (1.4 mM base pair) in BPE buffer (6 mM Na2HPO4, 2 mM NaH2PO4, 1 mM Na4EDTA, pH 7.0). Test articles (20 μL, 10 mM in DMSO) were added and allowed reach equilibrium binding (>3 h), any insoluble material was removed by low-speed centrifugation, then samples were heated from 25 to 110° C. at a scan rate of 1° C./min. Melting curves were plotted and melting temperature was determined using NanoAnalyze™.

In data set [3] the test system is tumour cells (at least 4 of a panel of ovarian, breast, lung, pancreatic, placenta, colon cell lines). The data set can be described thus: In vitro cytotoxicity (cell proliferation, CellTiter-Glo), average over tumour cell line panel. The following applies: average pIC50 on all cell lines tested; 5 nights incubation; CellTiter-Glo. Type of data set: cell-based. Put shortly: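 Each cell line seeded at ~1000 cells/well and left to adhere overnight, then given a 10-point 1:3 compound titration for 5 nights at 37° C, 5% CO2. Viability read by CellTiter-Glo luminescence; IC50 per line, reported as pIC50 averaged across at least 4 lines.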
For orientation: ATP-based viability assays read luminescence as a measure of living cells.

Regarding `CC(C)[C@H]1C(=O)NC[C@@H](NC(=O)c2nc3ccccc3cc2O)C(=O)N2CCCC[C@H]2C(=O)NCC(=O)N(C)CC(=O)N(C)[C@@H](C(C)C)C(=O)OC[C@@H](NC(=O)c2nc3ccccc3cc2O)C(=O)N2CCCC[C@H]2C(=O)NCC(=O)N(C)CC(=O)N1C` [Compound 14, N,N′-((7R,11S,19aS,26R,30S,38aS)-11,30-diisopropyl-12,15,31,34-tetramethyl-6,10,13,16,19,25,29,32,35,38-decaoxotetratriacontahydro-2H,6H,10H-dipyrido[2,1-b1: 2′,1′-l][1]oxa[4,7,10,13,17,20,23,26,29]nonaazacyclodotriacontine-7,26-diyl)bis(3-hydroxyquinoline-2-carboxamide)], the “HPLC” value in data set [1] amounted to 19.6 min. In addition, the half-life (in general, the time in which the quantity being followed falls by half) at 1 μM in data set [2] is 12.3 h. The “DNA melt (° C.)” value with herring sperm DNA came out at 97 °C. In addition, in data set [3], the “pIC50 (average)” value came to 8.5.
Consider `CC[C@H](C)[C@H]1C(=O)NC[C@@H](NC(=O)c2nc3ccccc3cc2O)C(=O)N2CCCC[C@H]2C(=O)NCC(=O)N(C)CC(=O)N(C)[C@@H]([C@@H](C)CC)C(=O)NC[C@@H](NC(=O)c2nc3ccccc3cc2O)C(=O)N2CCCC[C@H]2C(=O)NCC(=O)N(C)CC(=O)N1C` [Compound 67, N,N′-((7R,11S,19aS,26R,30S,38aS)-11,30-di((S)-sec-butyl)-12,15,31,34-tetramethyl-6,10,13,16,19,25,29,32,35,38-decaoxohexatriacontahydro-2H,6H-dipyrido[1,2-a:1′,2′-q][1,4,7,10,13,17,20,23,26,29]decaazacyclodotriacontine-7,26-diyl)bis(3-hydroxyquinoline-2-carboxamide)], for which the “HPLC” value in data set [1] was found to be 18.8 min. The “plasma stability (in words)” value in data set [2] was “stability over the course of the experiment”. Also, the “DNA melt (° C.)” value in the data set on herring sperm DNA worked out at 91 °C. For the same compound, in data set [3], the “pIC50 (average)” value was 8.6.
As for `CCN1CC(=O)N(C)[C@@H](C(C)C)C(=O)NC[C@@H](NC(=O)c2nc3ccccc3cc2O)C(=O)N2CCCC[C@H]2C(=O)NCC(=O)N(CC)CC(=O)N(C)[C@@H](C(C)C)C(=O)NC[C@@H](NC(=O)c2nc3ccccc3cc2O)C(=O)N2CCCC[C@H]2C(=O)NCC1=O` [Compound 132, N,N′-((7R,11S,19aS,26R,30S,38aS)-15,34-diethyl-11,30-diisopropyl-12,31-dimethyl-6,10,13,16,19,25,29,32,35,38-decaoxohexatriacontahydro-2H,6H-dipyrido[1,2-a:1′,2′-q][1,4,7,10,13,17,20,23,26,29]decaazacyclodotriacontine-7,26-diyl)bis(3-hydroxyquinoline-2-carboxamide)], the “HPLC” value in data set [1] is recorded as 18.5 min. In data set [2], the “plasma stability (in words)” value is on record as “stability over the course of the experiment”. The “pIC50 (average)” value in data set [3] is reported as 8.6.
In the case of `CC(C)[C@H]1COC[C@@H](NC(=O)c2nc3ccccc3cc2O)C(=O)N2CCCC[C@H]2C(=O)NCC(=O)N(C)CC(=O)N(C)[C@@H](C(C)C)COC[C@@H](NC(=O)c2nc3ccccc3cc2O)C(=O)N2CCCC[C@H]2C(=O)NCC(=O)N(C)CC(=O)N1C` [Compound 172, N,N′-((7R,11S,19aS,26R,30S,38aS)-11,30-diisopropyl-12,15,31,34-tetramethyl-6,13,16,19,25,32,35,38-octaoxodotriacontahydro-2H,6H,10H,25H-dipyrido[2,1-b1: 2′,1′-l][1,17]dioxa[4,7,10,13,20,23,26,29]octaazacyclodotriacontine-7,26-diyl)bis(3-hydroxyquinoline-2-carboxamide)], the “HPLC” value in data set [1] turned out to be 18.2 min. For the same compound, the “DNA melt (° C.)” value with herring sperm DNA came out at 91 °C. For the same compound, in data set [3], the “pIC50 (average)” value was determined as 7.9.
Regarding `CC(C)[C@H]1COC[C@@H](NC(=O)c2nc3ccccc3cc2O)C(=O)N2CCCC[C@H]2C(=O)NCC(=O)N(C)CC(=O)N(C)[C@@H](C(C)C)C(=O)NC[C@@H](NC(=O)c2nc3ccccc3cc2O)C(=O)N2CCCC[C@H]2C(=O)NCC(=O)N(C)CC(=O)N1C` [Compound 178, N,N′-((7R,11S,19aS,26R,30S,38aS)-11,30-diisopropyl-12,15,31,34-tetramethyl-6,13,16,19,25,29,32,35,38-nonaoxotetratriacontahydro-2H,6H,10H-dipyrido[2,1-b1: 2′,1′-l][1]oxa[4,7,10,13,17,20,23,26,29]nonaazacyclodotriacontine-7,26-diyl)bis(3-hydroxyquinoline-2-carboxamide)], the “HPLC” value in data set [1] was determined as 18.4 min. Further, the “plasma stability (in words)” value in data set [2] is recorded as “stability over the course of the experiment”. The “DNA melt (° C.)” value with herring sperm DNA amounted to 92 °C. Besides, in data set [3], the “pIC50 (average)” value is listed as 8.1.
Turning to `CN1CC(=O)N2CCCC[C@H]2COC[C@@H](NC(=O)c2nc3ccccc3cc2O)C(=O)N2CCCC[C@H]2C(=O)NCC(=O)N(C)CC(=O)N2CCCC[C@H]2C(=O)NC[C@@H](NC(=O)c2nc3ccccc3cc2O)C(=O)N2CCCC[C@H]2C(=O)NCC1=O` [Compound 187, N,N′-((7R,10aS,22aS,29R,32aS,44aS)-18,40-dimethyl-6,16,19,22,28,32,38,41,44-nonaoxodotetracontahydro-6H-tetrapyrido[2,1-b1: 2′,1′-c: 2″,1″-1:2′″,1′″-s][1]oxa[4,7,10,13,17,20,23,26,29]nonaazacyclodotriacontine-7,29-diyl)bis(3-hydroxyquinoline-2-carboxamide)], in data set [1], the “HPLC” value is given as 16.6 min. Moreover, the “DNA melt (° C.)” value with herring sperm DNA was determined as 94 °C. In data set [3], the “pIC50 (average)” value amounted to 8.0.
For `CC(C)[C@H]1COC[C@@H](NC(=O)c2nc3ccccc3cc2O)C(=O)N2CCCC[C@H]2C(=O)NCC(=O)N(C)CC(=O)N(C)[C@@H](C(C)C)C(=O)OC[C@@H](NC(=O)c2nc3ccccc3cc2O)C(=O)N2CCCC[C@H]2C(=O)NCC(=O)N(C)CC(=O)N1C` [Compound 203, N,N′-((7R,11S,19aS,26R,30S,38aS)-11,30-diisopropyl-12,15,31,34-tetramethyl-6,10,13,16,19,25,32,35,38-nonaoxodotriacontahydro-2H,6H,10H,25H-dipyrido[2,1-b1: 2′,1′-1][1,17]dioxa[4,7,10,13,20,23,26,29]octaazacyclodotriacontine-7,26-diyl)bis(3-hydroxyquinoline-2-carboxamide)] the same measures were 20.2 min, 96 °C and 8.5.
With `CC(C)[C@H]1C(=O)NC[C@@H](NC(=O)c2nc3ccccc3cc2O)C(=O)N2CCCC[C@H]2C(=O)NCCOCC(=O)N(C)[C@@H](C(C)C)C(=O)NC[C@@H](NC(=O)c2nc3ccccc3cc2O)C(=O)N2CCCC[C@H]2C(=O)NCCOCC(=O)N1C` [Compound 404, N,N′-((7R,11S,19aS,26R,30S,38aS)-11,30-diisopropyl-12,31-dimethyl-6,10,13,19,25,29,32,38-octaoxodotriacontahydro-2H,6H,16H,25H-dipyrido[1,2-a1: 1′,2′-k][1,17]dioxa[4,7,11,14,20,23,27,30]octaazacyclodotriacontine-7,26-diyl)bis(3-hydroxyquinoline-2-carboxamide)], the “HPLC” value in data set [1] is 16.0 min. In the data set with herring sperm DNA, the “DNA melt (° C.)” value was 68^1 °C and the “DNA binding (in words)” value is “did not demonstrate measurable DNA binding”. The “pIC50 (average)” value in data set [3] is “Inactive”.
For `O=C(N[C@@H]1CNC(=O)[C@@H]2CCCCN2C(=O)COCCNC(=O)[C@@H]2CCCCN2C(=O)[C@H](NC(=O)c2nc3ccccc3cc2O)CNC(=O)[C@@H]2CCCCN2C(=O)COCCNC(=O)[C@@H]2CCCCN2C1=O)c1nc2ccccc2cc1O` [Compound 409, N,N′-((7R,10aS,22aS,29R,32aS,44aS)-6,10,16,22,28,32,38,44-octaoxotetracontahydro-2H,19H-tetrapyrido[1,2-a1: 1′,2′-d: 1″,2″-k: 1′″,2′″-t][1,17]dioxa[4,7,11,14,20,23,27,30]octaazacyclodotriacontine-7,29-diyl)bis(3-hydroxyquinoline-2-carboxamide)] the same measures were 16.1 min, 68^1 °C, “did not demonstrate measurable DNA binding” and “inactive”.
`CCOC(=O)[C@H](CCc1ccccc1)N[C@@H](C)C(=O)N1CCC[C@H]1C(=O)O` [Enalapril, reference compound] had a half-life at 1 μM in data set [2] of 2.7 h.
